Measured values taken from patent US20090253669A1, “Substituted Sulfonamide Compounds” (GRUENENTHAL GmbH, priority 2008, published 2009).
Like-named read-outs stand apart in the source and are kept apart here.

How the values were obtained:
[1] = biological target: T1, human B1R receptor (hB1R) (Homo sapiens, UniProt P46663); test: FLIPR Ca2+ assay on hB1R-transfected CHO K1 cells, antagonistic action; type: cell-based
T1 construct: host or cells: CHO K1 cells
T1 sequence (P46663 1-353): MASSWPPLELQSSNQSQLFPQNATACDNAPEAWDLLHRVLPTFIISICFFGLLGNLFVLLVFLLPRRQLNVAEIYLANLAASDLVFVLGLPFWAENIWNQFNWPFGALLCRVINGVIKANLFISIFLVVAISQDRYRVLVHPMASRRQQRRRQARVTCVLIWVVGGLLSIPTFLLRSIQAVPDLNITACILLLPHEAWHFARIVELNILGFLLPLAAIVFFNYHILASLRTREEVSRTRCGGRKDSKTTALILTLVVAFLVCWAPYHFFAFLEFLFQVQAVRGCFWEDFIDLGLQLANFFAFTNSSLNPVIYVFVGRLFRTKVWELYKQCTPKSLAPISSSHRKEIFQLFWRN

[2] = biological target: T2, B1R receptor of the rat (rB1R) (Rattus norvegicus, UniProt P97583); test: FLIPR Ca2+ assay on rB1R-transfected CHO K1 cells, antagonistic action; type: cell-based
T2 construct: host or cells: CHO K1 cells
T2 sequence (P97583 1-337): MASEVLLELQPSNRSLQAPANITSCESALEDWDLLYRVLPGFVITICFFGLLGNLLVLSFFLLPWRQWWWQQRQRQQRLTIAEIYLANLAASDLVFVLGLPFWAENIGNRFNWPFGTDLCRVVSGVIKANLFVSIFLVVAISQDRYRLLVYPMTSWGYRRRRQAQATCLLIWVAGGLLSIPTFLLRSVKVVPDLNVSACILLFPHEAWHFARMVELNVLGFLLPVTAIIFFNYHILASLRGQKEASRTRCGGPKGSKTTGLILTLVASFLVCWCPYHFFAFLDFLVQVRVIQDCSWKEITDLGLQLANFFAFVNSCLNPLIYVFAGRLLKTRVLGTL

[3] = CHO-K1, 10 μM test substance, agonist Lys-Des-Arg9-bradykinin 0.5 nM, % of maximum achievable inhibition, read-out: hB1R [10 μM] % inhibition
[4] = CHO-K1, 10 μM test substance, agonist Des-Arg9-bradykinin 100 nM, % of maximum achievable inhibition, read-out: rB1R [10 μM] % inhibition

Structure (SMILES): CN1CCN(C2(c3ccccc3)CCN(C(=O)COCC3CCc4ccccc4N3S(=O)(=O)c3ccc(Cl)c(Cl)c3)CC2)CC1 (centres unmarked) [Compound 115, 2-((1-(3,4-dichlorophenylsulfonyl)-1,2,3,4-tetrahydroquinolin-2-yl)methoxy)-1-(4-(4-methylpiperazin-1-yl)-4-phenylpiperidin-1-yl)ethanone]
- inhibition at 10 µM [1, 3]: 71%
- inhibition at 10 µM [2, 4]: 72%

Structure (SMILES): COc1cc(C)c(S(=O)(=O)N2CCCCC2COCC(=O)N(C)CC2CCC(Cc3ccccc3)(N3CCCC3)CC2)c(C)c1 (centres unmarked) [Compound 78, N-((4-benzyl-4-(pyrrolidin-1-yl)cyclohexyl)methyl)-2-((1-(4-methoxy-2,6-dimethylphenylsulfonyl)piperidin-2-yl)methoxy)-N-methylacetamide]
- inhibition at 10 µM [1, 3]: 101%
- inhibition at 10 µM [2, 4]: 99%

Structure (SMILES): COc1cc(C)c(S(=O)(=O)N2CCCC(OCC(=O)NC3CCC(Cc4ccccc4)(N4CCCC4)CC3)C2)c(C)c1 (centres unmarked) [Compound 181, N-(4-benzyl-4-(pyrrolidin-1-yl)cyclohexyl)-2-(1-(4-methoxy-2,6-dimethylphenylsulfonyl)piperidin-3-yloxy)acetamide]
- inhibition at 10 µM [1, 3]: 78%
- inhibition at 10 µM [2, 4]: 71%

Structure (SMILES): CN(C)C1(CCc2ccccc2)CCC(NC(=O)CC2c3ccccc3CCN2S(=O)(=O)c2ccc(Cl)c(Cl)c2)CC1 (centres unmarked) [Compound 1, 2-(2-(3,4-dichlorophenylsulfonyl)-1,2,3,4-tetrahydroisoquinolin-1-yl)-N-(4-(dimethylamino)-4-phenethylcyclohexyl)acetamide]
- inhibition at 10 µM [1, 3]: 96%
- inhibition at 10 µM [2, 4]: 105%

Structure (SMILES): CN1CCN(C2(Cc3ccccc3)CCC(CN(C)C(=O)COCC3CCCCN3S(=O)(=O)c3c(Cl)cc(Cl)cc3Cl)CC2)CC1 (centres unmarked) [Compound 162, N-((4-benzyl-4-(4-methylpiperazin-1-yl)cyclohexyl)methyl)-N-methyl-2-((1-(2,4,6-trichlorophenylsulfonyl)piperidin-2-yl)methoxy)acetamide]
- inhibition at 10 µM [1, 3]: 102%
- inhibition at 10 µM [2, 4]: 94%

Structure (SMILES): CN(CCOCC(=O)NC1CCC(c2ccccc2)(N2CCCC2)CC1)S(=O)(=O)c1c(Cl)cc(Cl)cc1Cl (centres unmarked) [Compound 191, N-(4-phenyl-4-(pyrrolidin-1-yl)cyclohexyl)-2-(2-(2,4,6-trichloro-N-methylphenylsulfonamido)ethoxy)acetamide]
- inhibition at 10 µM [1, 3]: 90%
- inhibition at 10 µM [2, 4]: 55%

Structure (SMILES): CN1CCN(C2(Cc3ccccc3)CCC(CN(C)C(=O)COCCN(C)S(=O)(=O)c3c(Cl)cc(Cl)cc3Cl)CC2)CC1 (centres unmarked) [Compound 186, N-((4-benzyl-4-(4-methylpiperazin-1-yl)cyclohexyl)methyl)-N-methyl-2-(2-(2,4,6-trichloro-N-methylphenylsulfonamido)ethoxy)acetamide]
- inhibition at 10 µM [1, 3]: 97%
- inhibition at 10 µM [2, 4]: 64%

Structure (SMILES): COc1cc(C)c(S(=O)(=O)N2CCCCC2COCC(=O)N(C)CCCC2CCC(c3cccc(F)c3)(N3CCCC3)CC2)c(C)c1 (centres unmarked) [Compound 204, N-(3-(4-(3-fluorophenyl)-4-(pyrrolidin-1-yl)cyclohexyl)propyl)-2-((1-(4-methoxy-2,6-dimethylphenylsulfonyl)piperidin-2-yl)methoxy)-N-methylacetamide]
- inhibition at 10 µM [1, 3]: 99%
- inhibition at 10 µM [2, 4]: 103%

Structure (SMILES): COc1cc(C)c(S(=O)(=O)N(C)CCOCC(=O)N2CCC(Cc3ccccc3)(N3CCN(C)CC3)C2)c(C)c1 (centres unmarked) [Compound 197, N-(2-(2-(3-benzyl-3-(4-methylpiperazin-1-yl)pyrrolidin-1-yl)-2-oxoethoxy)ethyl)-4-methoxy-N,2,6-trimethylbenzenesulfonamide]
- inhibition at 10 µM [1, 3]: 98%
- inhibition at 10 µM [2, 4]: 99%

Structure (SMILES): Cc1cc(S(=O)(=O)N2CCCCC2CCC(=O)N(C)CCCC2CCC(c3ccccc3)(N3CCCC3)CC2)c(C)cc1Cl (centres unmarked) [Compound 136, 3-(1-(4-chloro-2,5-dimethylphenylsulfonyl)piperidin-2-yl)-N-methyl-N-(3-(4-phenyl-4-(pyrrolidin-1-yl)cyclohexyl)propyl)propanamide]
- inhibition at 10 µM [1, 3]: 99%
- inhibition at 10 µM [2, 4]: 32%

Structure (SMILES): CN1CCN(C2(c3cccc(F)c3)CCN(C(=O)CCCC3CCCCN3S(=O)(=O)c3ccccc3C(F)(F)F)CC2)CC1 (centres unmarked) [Compound 213, 1-(4-(3-Fluorophenyl)-4-(4-methylpiperazin-1-yl)piperidin-1-yl)-4-(1-(2-(trifluoromethyl)phenylsulfonyl)piperidin-2-yl)butan-1-one]
- inhibition at 10 µM ([1]; CHO-K1, read-out: hB1R [10 μM] % inhibition): 100%
- inhibition at 10 µM ([2]; CHO-K1, read-out: rB1R [10 μM] % inhibition): 100%

Structure (SMILES): O=C(COCC1CCCN1S(=O)(=O)c1c(Cl)cc(Cl)cc1Cl)NC1CCC(c2ccccc2)(N2CCOCC2)CC1 (centres unmarked) [Compound 164, N-(4-morpholino-4-phenylcyclohexyl)-2-((1-(2,4,6-trichlorophenylsulfonyl)pyrrolidin-2-yl)methoxy)acetamide]
- inhibition at 10 µM [1, 3]: 74%
- inhibition at 10 µM [2, 4]: 90%

Structure (SMILES): COc1cc(C)c(S(=O)(=O)N(C)CCOCC(=O)N(C)CCCC2CCC(CCc3ccccc3)(N3CCCC3)CC2)c(C)c1 (centres unmarked) [Compound 91, 2-(2-(4-methoxy-N,2,6-trimethylphenylsulfonamido)ethoxy)-N-methyl-N-(3-(4-phenethyl-4-(pyrrolidin-1-yl)cyclohexyl)propyl)acetamide]
- inhibition at 10 µM [1, 3]: 98%
- inhibition at 10 µM [2, 4]: 97%

Structure (SMILES): CN(C)C1(c2ccccc2)CCC(NC(=O)COCCN(C)S(=O)(=O)c2c(Cl)cc(Cl)cc2Cl)CC1 (centres unmarked) [Compound 199, N-(4-(dimethylamino)-4-phenylcyclohexyl)-2-(2-(2,4,6-trichloro-N-methylphenylsulfonamido)ethoxy)acetamide]
- inhibition at 10 µM [1, 3]: 76%
- inhibition at 10 µM [2, 4]: 36%

Structure (SMILES): COc1cc(C)c(S(=O)(=O)N(C)CCOCC(=O)N2CCC(CCc3ccccc3)(N(C)C)CC2)c(C)c1 [Compound 48, N-(2-(2-(4-(dimethylamino)-4-phenethylpiperidin-1-yl)-2-oxoethoxy)ethyl)-4-methoxy-N,2,6-trimethylbenzenesulfonamide]
- inhibition at 10 µM [1, 3]: 102%
- inhibition at 10 µM [2, 4]: 100%

Structure (SMILES): COc1cc(C)c(S(=O)(=O)N2CCCCC2COCC(=O)N2CCC(c3ccccc3)(N(C)C)CC2)c(C)c1 (centres unmarked) [Compound 75, 1-(4-(dimethylamino)-4-phenylpiperidin-1-yl)-2-((1-(4-methoxy-2,6-dimethylphenylsulfonyl)piperidin-2-yl)methoxy)ethanone]
- hB1R [10 μM] % inhibition ([1]; 10 μM test substance, agonist Lys-Des-Arg9-bradykinin 0.5 nM, % of maximum achievable inhibition): 103%
- rB1R [10 μM] % inhibition ([2]; 10 μM test substance, agonist Des-Arg9-bradykinin 100 nM, % of maximum achievable inhibition): 99%

Structure (SMILES): COc1cc(C)c(S(=O)(=O)N(C)CCOCC(=O)NC2CCC(Cc3ccccc3C)(N(C)C)CC2)c(C)c1 (centres unmarked) [Compound 10, N-(4-(dimethylamino)-4-(2-methylbenzyl)cyclohexyl)-2-(2-(4-methoxy-N,2,6-trimethylphenylsulfonamido)ethoxy)acetamide]
- inhibition at 10 µM [1, 3]: 103%
- inhibition at 10 µM [2, 4]: 95%

Structure (SMILES): COc1cc(C)c(S(=O)(=O)N2CCCC[C@H]2COCC(=O)N(C)CCC2CCC(c3ccccc3)(N3CCC3)CC2)c(C)c1 (stereo partly drawn) [Compound 201, (S)-N-(2-(4-(azetidin-1-yl)-4-phenylcyclohexyl)ethyl)-2-((1-(4-methoxy-2,6-dimethylphenylsulfonyl)piperidin-2-yl)methoxy)-N-methylacetamide]
- inhibition at 10 µM [1, 3]: 100%
- inhibition at 10 µM [2, 4]: 97%

Structure (SMILES): COc1cc(C)c(S(=O)(=O)N2CCC(OCC(=O)NC3CCC(c4ccccc4)(N4CCCC4)CC3)C2)c(C)c1 (centres unmarked) [Compound 153, 2-(1-(4-methoxy-2,6-dimethylphenylsulfonyl)pyrrolidin-3-yloxy)-N-(4-phenyl-4-(pyrrolidin-1-yl)cyclohexyl)acetamide]
- inhibition at 10 µM [1, 3]: 97%
- inhibition at 10 µM [2, 4]: 102%

Structure (SMILES): CN(CC1CCC(Cc2ccccc2)(N2CCCC2)CC1)C(=O)CC1CCCCN1S(=O)(=O)c1cccc(C(F)(F)F)c1 (centres unmarked) [Compound 94, N-((4-benzyl-4-(pyrrolidin-1-yl)cyclohexyl)methyl)-N-methyl-2-(1-(3-(trifluoromethyl)phenylsulfonyl)piperidin-2-yl)acetamide]
- inhibition at 10 µM [1, 3]: 64%
- inhibition at 10 µM [2, 4]: 93%

Structure (SMILES): Cc1cc(S(=O)(=O)N2CCCCC2CCC(=O)N2CCC(CCc3ccccc3)(N3CCN(C)CC3)CC2)c(C)cc1Cl (centres unmarked) [Compound 122, 3-(1-(4-chloro-2,5-dimethylphenylsulfonyl)piperidin-2-yl)-1-(4-(4-methylpiperazin-1-yl)-4-phenethylpiperidin-1-yl)propan-1-one]
- inhibition at 10 µM [1, 3]: 105%
- inhibition at 10 µM [2, 4]: 66%

Structure (SMILES): COc1cc(C)c(S(=O)(=O)N(C)CCOCC(=O)NC2CCC(Cc3ccccc3)(N3CCCC3)CC2)c(C)c1 (centres unmarked) [Compound 170, N-(4-benzyl-4-(pyrrolidin-1-yl)cyclohexyl)-2-(2-(4-methoxy-N,2,6-trimethylphenylsulfonamido)ethoxy)acetamide]
- inhibition at 10 µM [1, 3]: 104%
- inhibition at 10 µM [2, 4]: 84%
